In US10987317B2, “Inhibition of glutaminase C” (Cornell University, priority 2009, dated 2021):
“Also recorded” adds a separate entry of the source.

Experiments:
[1] = system: NIH 3T3 cells expressing H-Ras(G12V); assay: H-Ras(G12V)-induced transformation (focus formation, growth in low serum); type: cell-based; conditions: focus formation in NIH 3T3 cells or growth in low serum
Excerpt: FIGS. 5A-C illustrate comparative abilities of 968 and other benzo[a]phenanthrldinones to inhibit the transforming activity of oncogenic Dbl and H-Ras. […] Histograms show the relative levels of Dbl-induced focus formation for the different treatments, compared to Dbl-induced focus formation measured in the presence of DMSO (i.e. solvent control). Data represent the average of 3 experiments (mean±s.d.). […] Histograms show the relative levels of Ras(G12V)-induced focus formation measured for the different treatments, compared to Ras(G12V)-induced focus formation measured in the presence of DMSO (solvent control). Data represent the average of 3 experiments (mean±s.d.). FIG. 5C NIH 3T3 cells stably expressing H-Ras(G12V) that are cultured in DMEM supplemented with 1% calf serum, with the indicated amounts of 968. After 6 days, cells are trypsinized and counted. 100% represents the number of cells counted in the absence of 968, i.e. 26×10^4 cells. Data represent the average of 3 experiments (mean±s.d.).

[2] = system: normal NIH 3T3 cells; assay: Growth and morphology of control cells; type: cell-based; conditions: 10% calf serum; 5-10 μM
Protocol: FIGS. 1A-E illustrate that the small molecule 968 inhibiting cellular transformation. […] Cells were fixed and stained with crystal violet for counting of foci. Right: 968 was serially diluted (10, 5, 2.5, and 1.25 μM) and evaluated for its ability to inhibit focus formation. […] After 6 days, the cells are counted. 100% represents the number of Dbl-transformed cells counted in the absence of 968 (27.5×10^4 cells). Data represent the average of 3 experiments (±s.d.). […] At the indicated times, the cells are counted. Data represent the average of 3 experiments (±s.d.).

[3] = system: GA activity in SKBR3 cells; assay: GA activity in mitochondrial fractions; type: cell-based, human; conditions: 10 μM, phosphate-independent
Protocol: 100%=620 moles of glutamine hydrolyzed per minute per mole of enzyme. Data represent the average of 3 experiments (±s.d.). […] Following precipitation of the beads and re-suspension, the samples are analyzed by Western blotting with anti-V5 antibody. […] Data represent the average of 3 experiments (±s.d.). […] Data represent the average of 3 experiments (±s.d.). […] Data represent the average of 3 experiments (±s.d.). FIG. 3E NIH 3T3 cells transiently expressing Dbl are assayed for focus formation in the presence of 10 μM 968 alone or together with […] dimethyl α-ketoglutarate. […] 100%=680 nM glutamine hydrolyzed per minute per 10^5 cells. Data are the average of 3 experiments (=s.d.). […] 100%=750 nM glutamine hydrolyzed per minute per 10^5 cells. Data represent the average of 3 experiments (±s.d.).
FIGS. 4A-E illustrate the role of glutaminase C activity in cellular transformation. […] Data represent the average of 3 experiments (±s.d.). […] Data represent the average of 3 experiments (±s.d.). […] 100% represents the activity measured in untreated Dbl-transformed cells. The data represent the average of 2 experiments. […] 100% represents the activity measured in untreated SKBR3 cells. The data represent the average of 2 experiments. […] Data represent the average of 3 experiments (±s.d.).
FIGS. 11A-E illustrate the effects of different treatments on GA activity. […] The addition of Pi stimulated the GA activity in control 3T3 cells, Dbl-expressing cells, and Cdc42(F28L)-expressing cells by ˜6-fold, 2-fold, and 3-fold, respectively. 100% represents the Pi-stimulated activity measured for Dbl-transformed cells that are not treated with 968. Data is the average of 3 experiments (±s.d.). […] The addition of Pi stimulated the GA activity of HMECs, MDA-MB231 cells, and SKBR3 cells by ˜5-fold, 2-fold, and 1.4-fold, respectively. […] The data are plotted as the percentage of GA activity measured for untreated SKBR3 cells and represent the average of 2 experiments. […] 100% represents the P1-stimulated activity measured for untreateDbl-transformed cells. […]

## CN(C)c1ccc(C2Nc3ccc4ccccc4c3C3=C2C(=O)CC(C)(C)C3)cc1Br (stereo not drawn) [Compound 968, 5-[3-bromo-4-(dimethylamino)phenyl]-2,2-dimethyl-2,3,5,6-tetrahydrobenzo[a]]
[1]
  potency on Dbl-induced transformation compared to oncogenic H-Ras: more potent inhibitor of Dbl-induced transformation
[2]
  effect on growth or morphology of normal NIH 3T3 cells: no significant effects; also recorded: inability
[3]
  basal GA activity: sensitive
